Measured values taken from patent US11904042B2, “Hair coloring composition and methods for its application and removal” (HFC Prestige International Holding Switzerland S.a.r.l, priority 2018, dated 2024).

What was measured:
Details in all cases: after 15 washes
[1] = Example 2A: azo dye in multicomponent kit (Michael addition), color result and wash fastness
Procedure: (§1) Pretreatment to Apply Cationic Polymer (PEI, Polyethylenimine) on the Hair Fiber Surface: • 1 ml of PEI solution (0.5% aqueous solution of PEI (MW: 75 kDa) is applied on the hair strand. • The hair strand is dried via blow-dryer, followed by further drying at 40° C. in the oven.
100 mg azo dye is suspended in 1 g THF, and 8.4 g Isododecane (2,2,4,6,6-pentamethylheptane) solution are added as solvent. Subsequently, 200 mg Silmer OH ACR DI-10 polymer (acrylate derivative) and 300 mg Silamine 2972 is added to the reaction mixture. The mixture is stirred at room temperature for 5 min.
(§2) 1 g of the above prepared formulation is applied on a pre-treated hair tress (as described above) and the polymers are allowed to react to start forming a film immobilizing the added dye. After removing the excess of the formulation, the film forming reaction is completed as the hair tress is dried via a heat blower.

[2] = Example 2B: azo dye in multicomponent kit (isocyanate / OH silicone), color result and wash fastness
Procedure: as §1
100 mg azo dye are mixed with 300 mg isocyanate polymer (Silmer NCO DI50); 9.4 g 2,2,4,6,6-pentamethylheptane are added and the mixture is well shaked.
Subsequently, 200 mg OH Silicone (Silmer OHT C-50) are added to the reaction mixture. The mixture is stirred at room temperature for 5 min.
as §2

[3] = Example 2C: azo dye in multicomponent kit (silicone & carbon-hybrid system), color result and wash fastness
Procedure: as §1
100 mg azo dye are mixed with 400 mg isocyanate polymer (Melio 09-S-11); 9.3 g 1-Methoxy-2-propanol are added and the mixture is well shaked.
Subsequently, 200 mg OH Silicone (Silmer OHT C-50) are added to the reaction mixture. The mixture is stirred at room temperature for 5 min. 1 g of the above prepared formulation is applied on a pre-treated hair tress (as described above) and the polymers are allowed to react to start forming a film immobilizing the added dye. After removing the excess of the formulation, the film forming reaction is completed as the hair tress is dried via a heat blower.

SMILES | color remains to an extent of [1] | color remains to an extent of [2] | color remains to an extent of [3]
CCN(CCO)c1ccc(/N=N/c2nc(N3CCN(C)CC3)c(C=C3C(=O)c4ccccc4C3=O)s2)cc1 [black azo, 2-[[2-[(E)-[4-[ethyl(2-hydroxyethyl)amino]phenyl]azo]-4-(4-methylpiperazin-1-yl)thiazol-5-yl]methylene]indane-1,3-dione] | 30% | 50% | 80%
CCN(CCO)c1ccc(/N=N/c2nc(Cl)c(C=C3C(=O)c4ccccc4C3=O)s2)cc1 [blue azo, 2-{[4-chloro-2-((E)-{4-[ethyl(2-hydroxyethyl)amino]phenyl}diazenyl)-1,3-thiazol-5-yl]methylidene}-1H-indene-1,3(2H)-dione] | 80% | 90% | 80%
